Assays:
Format in all cases: cell-based
[1] = tested on: Proteus vulgaris; assay: MIC against Gram-negative bacteria: Proteus vulgaris; conditions: 5×10^5 CFU/mL
In short: (§1)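 MIC = lowest concentration of recombinant protein showing no growth. Test proteins: purified human-derived EGF domain proteins, two-fold dilution series, three wells per concentration; inoculum 5×10^5 CFU/mL in LB; incubation 37° C with shaking at 175 rpm.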

[2] = tested on: Moraxella catarrhalis; assay: MIC against Gram-negative bacteria: Moraxella catarrhalis; conditions: 5×10^5 CFU/mL
In short: as §1

[3] = tested on: Citrobacter diversus; assay: MIC against Gram-negative bacteria: Citrobacter diversus; conditions: 5×10^5 CFU/mL
In short: as §1

[4] = tested on: E. coli DH5α; assay: Antibacterial activity: MIC and growth curve against E. coli DH5α in 96-well plate; conditions: minimal inhibitory concentration against E. coli DH5α; 96-well plate, 5×10^5 CFU/mL, 37° C., judged after 8 h
In short: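 Log-phase bacteria (OD600 ~0.5) resuspended in LB at 5×10^5 CFU/mL, exposed to recombinant protein at 50, 25, 12.5 μg/mL final in triplicate, 37 °C shaking at 175 rpm. OD600 read every 30 min; MIC is lowest concentration showing no growth.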

[5] = tested on: Aeromonas hydrophila; assay: MIC against Gram-negative bacteria: Aeromonas hydrophila; conditions: 5×10^5 CFU/mL
In short: as §1

[6] = tested on: Klebsiella pneumonia; assay: MIC against Gram-negative bacteria: Klebsiella pneumonia; conditions: 5×10^5 CFU/mL
In short: as §1

[7] = tested on: Proteus mirabilis; assay: MIC against Gram-negative bacteria: Proteus mirabilis; conditions: 5×10^5 CFU/mL
In short: as §1

[8] = tested on: Serratia marcescens; assay: MIC against Gram-negative bacteria: Serratia marcescens; conditions: 5×10^5 CFU/mL
In short: as §1

[9] = tested on: Pseudomonas aeruginosa; assay: MIC against Gram-negative bacteria: Pseudomonas aeruginosa; conditions: 5×10^5 CFU/mL
In short: as §1

[10] = tested on: Enterobacter cloacae; assay: MIC against Gram-negative bacteria: Enterobacter cloacae; conditions: 5×10^5 CFU/mL
In short: as §1

[11] = tested on: E. coli BL21; assay: MIC against Gram-negative bacteria: E. coli BL21; conditions: 5×10^5 CFU/mL
In short: as §1

[12] = P. vulgaris, 10 h cultivation at 37° C.
[13] = M. catarrhalis, 10 h cultivation at 37° C.
[14] = C. diversus, 10 h cultivation at 37° C.
[15] = A. hydrophila, 10 h cultivation at 37° C.
[16] = K. pneumonia, 10 h cultivation at 37° C.
[17] = P. mirabilis, 10 h cultivation at 37° C.
[18] = S. marcescens, 10 h cultivation at 37° C.
[19] = P. aeruginosa, 10 h cultivation at 37° C.
[20] = E. cloacae, 10 h cultivation at 37° C.
[21] = E. coli BL21, 10 h cultivation at 37° C.
[22] = 10 h cultivation at 37° C., two-fold serial dilution
[23] = Proteus vulgaris, 96-well plate, 37° C., 10 h
[24] = Moraxella catarrhalis, 96-well plate, 37° C., 10 h
[25] = Citrobacter diversus, 96-well plate, 37° C., 10 h
[26] = Aeromonas hydrophila, 96-well plate, 37° C., 10 h
[27] = Klebsiella pneumonia, 96-well plate, 37° C., 10 h
[28] = Proteus mirabilis, 96-well plate, 37° C., 10 h
[29] = Serratia marcescens, 96-well plate, 37° C., 10 h
[30] = Pseudomonas aeruginosa, 96-well plate, 37° C., 10 h
[31] = Enterobacter cloacae, 96-well plate, 37° C., 10 h
[32] = E. coli BL21, 96-well plate, 37° C., 10 h

PRT807 (YGDGCQLPCTCQNGADCHSITGGCTCAPGFMGEVCA; listed as Homo sapiens)
MIC (μg/mL) P. vulgaris [1, 12]: 50 µg/mL | MIC (μg/mL) M. catarrhalis [2, 13]: 50 µg/mL | MIC (μg/mL) C. diversus [3, 14]: 25 µg/mL | MIC [4]: 25 µg/mL | MIC (μg/mL) A. hydrophila [5, 15]: 12.5 µg/mL | MIC (μg/mL) K. pneumonia [6, 16]: 12.5 µg/mL | MIC (μg/mL) P. mirabilis [7, 17]: 12.5 µg/mL | MIC (μg/mL) S. marcescens [8, 18]: 12.5 µg/mL | MIC (μg/mL) P. aeruginosa [9, 19]: 25 µg/mL | MIC (μg/mL) E. cloacae [10, 20]: 50 µg/mL | MIC (μg/mL) E. coli BL21 [11, 21]: 50 µg/mL

PRT1068 (DINECLRFGTCSQLCNNTKGGHLCSCARNFMKTHNTCK; listed as Homo sapiens)
MIC P. vulgaris [1, 22]: 50 µg/mL | MIC M. catarrhalis [2, 22]: 12.5 µg/mL | MIC C. diversus [3, 22]: 25 µg/mL | MIC [4]: 12.5 µg/mL | MIC A. hydrophila [5, 22]: 50 µg/mL | MIC K. pneumonia [6, 22]: 12.5 µg/mL | MIC P. mirabilis [7, 22]: 25 µg/mL | MIC S. marcescens [8, 22]: 25 µg/mL | MIC P. aeruginosa [9, 22]: 25 µg/mL | MIC E. cloacae [10, 22]: 25 µg/mL | MIC E. coli BL21 [11, 22]: 50 µg/mL

PRT502 (CECHGHAAECNVHGVCIACAHNTTGVHCEQCLPGFYGEPSRGTPGDCQP; listed as Homo sapiens)
MIC against P. vulgaris ([1]; 96-well plate, 37° C., 10 h): 50 µg/mL | MIC against M. catarrhalis ([2]; 96-well plate, 37° C., 10 h): 12.5 µg/mL | MIC against C. diversus ([3]; 96-well plate, 37° C., 10 h): 12.5 µg/mL | MIC [4]: 25 µg/mL | MIC against A. hydrophila ([5]; 96-well plate, 37° C., 10 h): 12.5 µg/mL | MIC against K. pneumonia ([6]; 96-well plate, 37° C., 10 h): 12.5 µg/mL | MIC against P. mirabilis ([7]; 96-well plate, 37° C., 10 h): 12.5 µg/mL | MIC against S. marcescens ([8]; 96-well plate, 37° C., 10 h): 25 µg/mL | MIC against P. aeruginosa ([9]; 96-well plate, 37° C., 10 h): 12.5 µg/mL | MIC against E. cloacae ([10]; 96-well plate, 37° C., 10 h): 12.5 µg/mL | MIC against E. coli BL21 ([11]; 96-well plate, 37° C., 10 h): 12.5 µg/mL

PRT186 (STLSCADSPCFNGGSCRERNQGANYACECPPNFTGSNCE; listed as Homo sapiens)
MIC (μg/mL) P. vulgaris [1, 12]: 25 µg/mL | MIC (μg/mL) M. catarrhalis [2, 13]: 25 µg/mL | MIC (μg/mL) C. diversus [3, 14]: 12.5 µg/mL | MIC [4]: 12.5 µg/mL | MIC (μg/mL) A. hydrophila [5, 15]: 25 µg/mL | MIC (μg/mL) K. pneumonia [6, 16]: 25 µg/mL | MIC (μg/mL) P. mirabilis [7, 17]: 12.5 µg/mL | MIC (μg/mL) S. marcescens [8, 18]: 12.5 µg/mL | MIC (μg/mL) P. aeruginosa [9, 19]: 12.5 µg/mL | MIC (μg/mL) E. cloacae [10, 20]: 50 µg/mL | MIC (μg/mL) E. coli BL21 [11, 21]: 50 µg/mL

PRT1253 (WPRQCPCLVDGARYWPGQRIKADCQLCICQDGRPRRCR; listed as Homo sapiens)
MIC against P. vulgaris [1, 23]: 50 µg/mL | MIC against M. catarrhalis [2, 24]: 12.5 µg/mL | MIC against C. diversus [3, 25]: 25 µg/mL | MIC [4]: 50 µg/mL | MIC against A. hydrophila [5, 26]: 50 µg/mL | MIC against K. pneumonia [6, 27]: 25 µg/mL | MIC against P. mirabilis [7, 28]: 25 µg/mL | MIC against S. marcescens [8, 29]: 25 µg/mL | MIC against P. aeruginosa [9, 30]: 50 µg/mL | MIC against E. cloacae [10, 31]: 12.5 µg/mL | MIC against E. coli BL21 [11, 32]: 12.5 µg/mL

PRT471 (VCEPGCGAHGTCHEPNKCQCQEGWHGRHCN; listed as Homo sapiens)
MIC against P. vulgaris ([1]; 96-well plate, 37° C., 10 h): 25 µg/mL | MIC against M. catarrhalis ([2]; 96-well plate, 37° C., 10 h): 12.5 µg/mL | MIC against C. diversus ([3]; 96-well plate, 37° C., 10 h): 12.5 µg/mL | MIC [4]: 100 µg/mL | MIC against A. hydrophila ([5]; 96-well plate, 37° C., 10 h): 12.5 µg/mL | MIC against K. pneumonia ([6]; 96-well plate, 37° C., 10 h): 12.5 µg/mL | MIC against P. mirabilis ([7]; 96-well plate, 37° C., 10 h): 12.5 µg/mL | MIC against S. marcescens ([8]; 96-well plate, 37° C., 10 h): 12.5 µg/mL | MIC against P. aeruginosa ([9]; 96-well plate, 37° C., 10 h): 12.5 µg/mL | MIC against E. cloacae ([10]; 96-well plate, 37° C., 10 h): 12.5 µg/mL | MIC against E. coli BL21 ([11]; 96-well plate, 37° C., 10 h): 12.5 µg/mL

PRT254 (PCLEGGTCILSPKGASCNCPHPYTGDRCE; listed as Homo sapiens)
MIC (μg/mL) P. vulgaris [1, 12]: 12.5 µg/mL | MIC (μg/mL) M. catarrhalis [2, 13]: 25 µg/mL | MIC (μg/mL) C. diversus [3, 14]: 12.5 µg/mL | MIC [4]: 25 µg/mL | MIC (μg/mL) A. hydrophila [5, 15]: 25 µg/mL | MIC (μg/mL) K. pneumonia [6, 16]: 12.5 µg/mL | MIC (μg/mL) P. mirabilis [7, 17]: 12.5 µg/mL | MIC (μg/mL) S. marcescens [8, 18]: 12.5 µg/mL | MIC (μg/mL) P. aeruginosa [9, 19]: 12.5 µg/mL | MIC (μg/mL) E. cloacae [10, 20]: 12.5 µg/mL | MIC (μg/mL) E. coli BL21 [11, 21]: 12.5 µg/mL

PRT166 (NGSPCQHGGTCVDDEGRASHASCLCPPGFSGNFCE; listed as Homo sapiens)
MIC (μg/mL) P. vulgaris [1, 12]: 12.5 µg/mL | MIC (μg/mL) M. catarrhalis [2, 13]: 12.5 µg/mL | MIC (μg/mL) C. diversus [3, 14]: 12.5 µg/mL | MIC [4]: 12.5 µg/mL | MIC (μg/mL) A. hydrophila [5, 15]: 12.5 µg/mL | MIC (μg/mL) K. pneumonia [6, 16]: 25 µg/mL | MIC (μg/mL) P. mirabilis [7, 17]: 12.5 µg/mL | MIC (μg/mL) S. marcescens [8, 18]: 50 µg/mL | MIC (μg/mL) P. aeruginosa [9, 19]: 12.5 µg/mL | MIC (μg/mL) E. cloacae [10, 20]: 12.5 µg/mL | MIC (μg/mL) E. coli BL21 [11, 21]: 25 µg/mL

PRT1416 (IEICAADCGGHGVCVGGTCRCEDGWMGAACDQ; listed as Homo sapiens)
MIC against P. vulgaris ([1]; Proteus vulgaris, 10 h cultivation at 37° C.): 25 µg/mL | MIC against M. catarrhalis ([2]; Moraxella catarrhalis, 10 h cultivation at 37° C.): 25 µg/mL | MIC against C. diversus ([3]; Citrobacter diversus, 10 h cultivation at 37° C.): 12.5 µg/mL | MIC [4]: 25 µg/mL | MIC against A. hydrophila ([5]; Aeromonas hydrophila, 10 h cultivation at 37° C.): 25 µg/mL | MIC against K. pneumonia ([6]; Klebsiella pneumonia, 10 h cultivation at 37° C.): 50 µg/mL | MIC against P. mirabilis ([7]; Proteus mirabilis, 10 h cultivation at 37° C.): 12.5 µg/mL | MIC against S. marcescens ([8]; Serratia marcescens, 10 h cultivation at 37° C.): 12.5 µg/mL | MIC against P. aeruginosa ([9]; Pseudomonas aeruginosa, 10 h cultivation at 37° C.): 25 µg/mL | MIC against E. cloacae ([10]; Enterobacter cloacae, 10 h cultivation at 37° C.): 25 µg/mL | MIC against E. coli BL21 [11, 21]: 12.5 µg/mL

PRT126 (IIDRCVPNHCEHGGKCSQTWDSFKCTCDETGYSGATCH; listed as Homo sapiens)
MIC (μg/mL) P. vulgaris [1, 23]: 12.5 µg/mL | MIC (μg/mL) M. catarrhalis [2, 24]: 100 µg/mL | MIC (μg/mL) C. diversus [3, 25]: 12.5 µg/mL | MIC [4]: 12.5 µg/mL | MIC (μg/mL) A. hydrophila [5, 26]: 12.5 µg/mL | MIC (μg/mL) K. pneumonia [6, 27]: 50 µg/mL | MIC (μg/mL) P. mirabilis [7, 28]: 25 µg/mL | MIC (μg/mL) S. marcescens [8, 29]: 25 µg/mL | MIC (μg/mL) P. aeruginosa [9, 30]: 12.5 µg/mL | MIC (μg/mL) E. cloacae [10, 31]: 12.5 µg/mL | MIC (μg/mL) E. coli BL21 [11, 32]: 50 µg/mL

Source: US9833497B2, “Human originated EGF domain proteins and use of the same” (CHENGDU SOURCEBIO LIMITED-LIABILITY COMPANY, priority 2013, dated 2017)
